Results as given in the PolyMetriX glass transition set.
± gives the standard deviation of the reports.

SMILES	glass transition temperature [°C]
*CCCC(*)C (repeat unit)	-52.60
*CCCCCCOc1ccc(C(=O)N(C(=O)c2ccc(O*)cc2)c2ccc(Oc3ccccc3)cc2)cc1 (repeat unit)	78.00
*CC(*)C(=O)OCCCCCCCCCCCCOC(=O)c1ccc(OC(=O)c2ccc(C#N)cc2)cc1 (repeat unit)	15.00
*C(=O)c1ccc2c(c1)C(=O)N(c1cccc(Oc3cccc(Oc4cccc(N5C(=O)c6ccc(*)cc6C5=O)c4)c3)c1)C2=O (repeat unit)	211.00
*CCNC(=O)c1ccc([Si](c2ccccc2)(c2ccccc2)c2ccc(C(=O)NCCN(*)c3ccc(/C=C/c4ccc([N+](=O)[O-])cc4)cc3)cc2)cc1 (repeat unit)	165.00
*Oc1ccc(NC(=C(C#N)C#N)c2ccc3cc(C(Nc4ccc(*)cc4)=C(C#N)C#N)ccc3c2)cc1 (repeat unit)	280.00
*C1CC(*)(C#N)C1 (repeat unit)	220.00
*Nc1ccc(NC(=O)c2cc(C(=O)c3ccc(C(=O)O)c(C(*)=O)c3)ccc2C(=O)O)cc1 (repeat unit)	213.20
*C(=O)c1cc(C(=O)c2ccc3c(c2)C(=O)N(c2ccc(Oc4ccc(N5C(=O)c6ccc(*)cc6C5=O)cc4)cc2)C3=O)cc(C(C)(C)C)c1 (repeat unit)	252.50
*Oc1ccccc1C(=O)OC(=O)c1ccccc1OC(=O)CCCCCC(*)=O (repeat unit)	40.00
*c1ccc(Oc2ccc(-c3nc4cc(-c5ccc6nc(-c7ccccc7)c(*)nc6c5)ccc4nc3-c3ccccc3)cc2)cc1 (repeat unit)	300.00
*/C=C/c1sc(-c2ccc(-c3ccc(-c4sc(/C=C/C5=CC(=C(C#N)C#N)C=C(*)O5)c(CCCCCC)c4CCCCCC)s3)s2)c(CCCCCC)c1CCCCCC (repeat unit)	112.00
*CC(*)C(=O)Oc1cccc(N(C)C)c1 (repeat unit)	47.00
*Oc1ccc(C(C)(c2ccccc2)c2ccc(Oc3c(F)c(F)c(C(=O)c4c(F)c(F)c(*)c(F)c4F)c(F)c3F)cc2)cc1 (repeat unit)	175.00
*/C(C#N)=C/c1cc(OCC(CC)CCCC)c(/C=C(\C#N)c2ccc3c4ccc(*)cc4n(CC(CC)CCCC)c3c2)cc1OCC(CC)CCCC (repeat unit)	72.00
*Oc1ccc(NC(=O)c2cc(C(=O)Nc3ccc(*)cc3)cc(C(C)(C)C)c2)cc1 (repeat unit)	268.00
*Oc1ccc(-c2ccc(Oc3c(F)c(F)c(COC(c4cccc(C(OCc5c(F)c(F)c(*)c(F)c5F)(C(F)(F)F)C(F)(F)F)c4)(C(F)(F)F)C(F)(F)F)c(F)c3F)cc2)cc1 (repeat unit)	110.00
*C(=O)Nc1ccc(C2(c3ccc(NC(=O)c4ccc5c(c4)C(=O)N(c4ccc(Oc6ccc(N7C(=O)c8ccc(*)cc8C7=O)cc6)cc4)C5=O)cc3)c3ccccc3-c3ccccc32)cc1 (repeat unit)	240.00
*Oc1c(C)cc(C2(c3cc(C)c(Oc4ccc(C(=O)c5ccc(*)cc5)cc4)c(C)c3)CCC3CCCCC3C2)cc1C (repeat unit)	251.00
*CC1CCC(COC(=O)Nc2ccc(Cc3ccc(NC(=O)O*)cc3)cc2)CC1 (repeat unit)	134.00
*c1ccc(Oc2ccc(C(=O)c3cccc(-c4cccc(C(=O)c5ccc(Oc6ccc(-c7nc(-c8cccc(-c9nc(*)c(-c%10ccccc%10)[nH]9)c8)[nH]c7-c7ccccc7)cc6)cc5)c4)c3)cc2)cc1 (repeat unit)	250.00
*CCCCCCCCCN1C(=O)c2ccc(C(c3ccc4c(c3)C(=O)N(*)C4=O)(C(F)(F)F)C(F)(F)F)cc2C1=O (repeat unit)	135.00

SMILES	glass transition temperature [°C]
*CC(OC(=O)C(=O)OCC)C(COC(=O)O*)OC(=O)C(=O)OCC (repeat unit)	53.80
*CCOC(=O)NC1CCC(CC2CCC(NC(=O)OCCOc3ccc(C4(c5ccc(O*)cc5)c5ccccc5-c5ccccc54)cc3)CC2)CC1 (repeat unit)	140.00
*Oc1ccc(C(C)(C)c2ccc(Oc3ccc(C(=O)c4ccc(C(=O)c5ccc(*)cc5)cc4)cc3)cc2)cc1 (repeat unit)	160.00
*CC(c1ccccc1)C1C(=O)N(c2ccc(Oc3ccccc3)cc2)C(=O)C1* (repeat unit)	194.00
*CC(*)OC(=O)C(F)(F)C(F)(F)C(F)(F)C(F)(F)F (repeat unit)	20.00
*CC(*)OC(=O)C(C)(C)CC(C)(C)C (repeat unit)	55.00
*Oc1ccc(OC(=O)c2ccc(C(*)=O)cc2Sc2ccccc2)cc1-c1ccccc1 (repeat unit)	130.00
*Oc1ccc(C(C)(c2ccccc2)c2ccc(OC(*)=S)cc2)cc1 (repeat unit)	181.00
*C(=O)c1ccc2c(c1)C(=O)N(c1cc(N3C(=O)c4ccc(*)cc4C3=O)c(C)cc1C)C2=O (repeat unit)	305.00
*Oc1ccc(NC(=O)CCCCC(=O)Nc2ccc(*)cc2)cc1 (repeat unit)	230.00
*Oc1ccc(C2(c3ccc(Oc4ccc(C(=O)c5cccc(C(=O)c6ccc(*)cc6)c5)cc4)cc3)CCC3CCCCC3C2)cc1 (repeat unit)	194.00
*c1cc(N2C(=O)c3ccc(-c4ccc5c(c4)C(=O)N(*)C5=O)cc3C2=O)c(O)cc1O (repeat unit)	343.00
*CCC[Si](*)(C)C (repeat unit)	-55.00
*CC(*)(C)C(=O)OCCF (repeat unit)	90.00
*c1ccc(Oc2ccc(C(C)(C)c3ccc(Oc4ccc(-c5nnc(*)n5-c5ccc(C)cc5)cc4)cc3)cc2)cc1 (repeat unit)	205.00
*Oc1ccc(C(=O)c2ccc(Oc3ccc(C(=O)c4c(C(=O)c5ccc(*)cc5)c(-c5ccc(F)cc5)c(-c5ccc(F)cc5)c(-c5ccc(F)cc5)c4-c4ccc(F)cc4)cc3)cc2)cc1 (repeat unit)	260.00
*CC1CCC(COC(=O)CCC(=O)O*)CC1 (repeat unit)	-1.00
*Oc1cccc(NC(=O)c2ccc(C(=O)c3cccc(C(=O)Nc4ccc(*)cc4)c3)cc2)c1 (repeat unit)	237.00
*c1ccc2c(c1)C(=O)N(c1cccc(Oc3ccc(P(=O)(c4ccccc4)c4ccc(Oc5cccc(N6C(=O)c7ccc(C(*)(C(F)(F)F)C(F)(F)F)cc7C6=O)c5)cc4)cc3)c1)C2=O (repeat unit)	243.00
*Oc1ccc(NC(=O)c2cc(C(=O)Nc3ccc(Oc4ccc(C(c5ccc(*)cc5)(C(F)(F)F)C(F)(F)F)cc4)cc3)cc(C(C)(C)C)c2)cc1 (repeat unit)	255.50
*C(=O)Nc1ccc(Oc2ccc(NC(=O)c3ccc4c(c3)C(=O)N(c3ccc(Oc5ccc(C6(c7ccc(Oc8ccc(N9C(=O)c%10ccc(*)cc%10C9=O)cc8)cc7)CC7CC6C6CCCC76)cc5)cc3)C4=O)cc2)cc1 (repeat unit)	250.00
*CCCCCC(=O)O* (repeat unit) [Poly(caprolactone)]	55.0 ± 78

SMILES	glass transition temperature [°C]
*CC(C)(C)C1C(=O)N(C2CCCCC2)C(=O)C1* (repeat unit)	192.00
*Oc1ccc(C(C)(CC)c2ccc(OC(=O)OC3C(C)(C)C(OC(*)=O)C3(C)C)cc2)cc1 (repeat unit)	124.00
*CCCCCCN1C(=O)c2ccc(C(=O)c3ccc4c(c3)C(=O)N(*)C4=O)cc2C1=O (repeat unit)	127.00
*CC(Cc1cccc2ccccc12)C[Si](*)(C)C (repeat unit)	17.00
*CCOCCOCCOCCOCCOC(=O)CCSCCC(=O)O* (repeat unit)	-39.00
*CC(*)(C)C(=O)OCCCCCCCCCCOc1ccc(/N=N/c2ccc(Cl)cc2)cc1 (repeat unit)	54.00
*Oc1ccc(/C(=C/c2ccc(-c3ccc(/C=C(\c4ccccc4)c4ccc(OC(=O)CCCCCCCCC(*)=O)cc4)cc3)cc2)c2ccccc2)cc1 (repeat unit)	111.00
*CCCCCCCCOC(=O)NNC(=O)CCCCCCCCC(=O)NNC(=O)O* (repeat unit)	38.00
*Oc1ccc(S(=O)(=O)c2ccc(Oc3ccc(C(C)(C)c4ccc(*)cc4)cc3)c([N+](=O)[O-])c2)cc1[N+](=O)[O-] (repeat unit)	206.00
*Oc1ccc(/C=N/N=C/c2ccc(Oc3ccc(C(c4ccc(*)cc4)(C(F)(F)F)C(F)(F)F)cc3)cc2)cc1 (repeat unit)	162.00
*c1nc(C(F)(F)C(F)(F)C(F)(F)F)nc(C(F)(F)C(F)(F)C(F)(F)C(F)(F)C(F)(F)C(*)(F)F)n1 (repeat unit)	-5.00
*C(=O)Nc1ccc(-c2ccc(NC(=O)c3ccc4c(c3)C(=O)N(c3cccc(P(=O)(c5ccccc5)c5cccc(N6C(=O)c7ccc(*)cc7C6=O)c5)c3)C4=O)cc2)cc1 (repeat unit)	253.00
*/C=C(/*)C(CCC)[Si](C)(C)CCCCCC (repeat unit)	40.00
*CC(C)(C)COC(=O)CCC(=O)O* (repeat unit)	-18.00
*CCCN(*)C(=O)c1ccccc1 (repeat unit)	72.00
*CCc1ccc(*)cc1 (repeat unit) [Poly(p-xylene)]	70 ± 10
*c1ccc(C(c2ccc(-c3nc4ccc(-c5ccc6nc(*)[nH]c6c5)cc4[nH]3)cc2)(C(F)(F)F)C(F)(F)F)cc1 (repeat unit)	269.00
*Oc1ccc(C(CC)c2ccc(OC(*)=O)cc2)cc1 (repeat unit)	128.00
*c1ccc2c(c1)C(CCCCCCCC)(CCCCCCCC)c1cc(*)ccc1-2 (repeat unit) [poly(9,9-dioctylfluorene)]	71.00 ± 10
*CC(CCCCCCCCCCCC)COC(=O)NC(=O)c1cccc(C(=O)NC(=O)O*)c1 (repeat unit)	112.00
*CCCCCCCNC(=S)N* (repeat unit)	52.00
*CCC([2H])C(*)([2H])C (repeat unit)	-47.50
